The values below come from ChEMBL document CHEMBL1144961, “Identification of a novel antiangiogenic agent; 4-(N-imidazol-2-ylmethyl)amino benzopyran analogues” (Bioorg Med Chem Lett, 2003).

Calls of active or inactive are those of the source. The calls are words filed in the database; no cut-off is given here. Bounds are passed on as bounds.

Test [1] is filed under the species Homo sapiens. Briefly: Inhibitory effect on (HUVEC) human umbilical vein endothelial cell tube formation at a uM; not assayed. The test is classed as functional.
The species named for test [2] is Rattus norvegicus. In words: Vasorelaxant potency was measured by inhibition of […]-contracted rat aorta. The test is classed as functional.
For test [3], the species on record is Rattus norvegicus. In words: In vitro cardioprotective effect was evaluated by measuring the contractile function EDP at a concentration of 10 uM. The test is classed as functional, Heart.
For test [4], the species on record is Rattus norvegicus. Briefly: In vitro cardioprotective effect was evaluated by measuring the contractile function TTC at a concentration of 10 uM. The test is classed as functional, Heart.
For test [5], the system named is Rattus norvegicus. Briefly: In vivo anti-infarction effect by measuring the ratio of myocardial infarct zone to area at risk (IZ/AAR) in ischemic myocardium damage rat model at 0.3 mg/Kg. In kind it is functional.
The species entered for test [6] is Rattus norvegicus. In words: In vitro cardioprotective effect was evaluated by measuring the contractile function (LVDRxHR) at a concentration of 10 uM. In kind it is functional, Heart.
The species entered for test [7] is Rattus norvegicus. Briefly: In vitro cardioprotective effect was evaluated by measuring the contractile function LDH at a concentration of 10 uM. The test is classed as functional, Heart.
For test [8], the species on record is Homo sapiens. In words: Inhibitory effect on (HUVEC) human umbilical vein endothelial cell tube formation at a uM; ++ significant inhibition. The test is classed as functional.
In test [9] the test system is Mus musculus. Briefly: Antitumor efficacy against A549 human non -small cell lung carcinoma was tested in nude mice xenografts at 50 mg/kg on 14th day (i.p.). In kind it is functional. The following applies: route intraperitoneal. On the technique in general: Xenograft models place foreign cells or tissue in a host animal.
The subject of test [10] is Mus musculus. Briefly: Antitumor efficacy against A549 human non -small cell lung carcinoma was tested in nude mice xenografts at 50 mg/kg on 35th day (i.p.). The test is classed as functional. Conditions: route intraperitoneal.
Test [11] has as its system Mus musculus. In words: Antitumor efficacy against A549 human non -small cell lung carcinoma was tested in nude mice xenografts at 50 mg/kg on 1st day (i.p.). The test is classed as functional. The following applies: route intraperitoneal.
For test [12], the system named is Mus musculus. Briefly: Antitumor efficacy against A549 human non -small cell lung carcinoma was tested in nude mice xenografts at 50 mg/kg on 25th day (i.p.). The test is classed as functional. The following applies: route intraperitoneal.
The subject of test [13] is Mus musculus. Briefly: Antitumor efficacy against A549 human non -small cell lung carcinoma was tested in nude mice xenografts at 50 mg/kg on 61th day (i.p.). The test is classed as functional. Conditions: route intraperitoneal.
For test [14], the system named is Rattus norvegicus. In words: In vivo anti-infarction effect by measuring the ratio of myocardial infarct zone to area at risk (IZ/AAR) in ischemic myocardium damage rat model at 0.3 mg/Kg;not assayed. In kind it is functional, organism-based.
For test [15], the species on record is Rattus norvegicus. In words: In vitro cardioprotective effect was evaluated by measuring the contractile function LDH at a concentration of 10 uM;not assayed. In kind it is functional. The following applies: Heart.
The test system of test [16] is Mus musculus. In words: Antitumor efficacy against A549 human non -small cell lung carcinoma was tested in nude mice xenografts at 50 mg/kg on 45th day (i.p.). Conditions: route intraperitoneal. In kind it is functional.

Consider `COC(OC)[C@]1(C)Oc2ccc(N)cc2[C@H](N(Cc2ncc[nH]2)c2ccc(Cl)cc2)[C@H]1O`, for which the inhibition entry in the test listed under Homo sapiens [1] was “inactive”.
Turning to `COC(OC)[C@@]1(C)Oc2ccc([N+](=O)[O-])cc2[C@@H](N(Cc2ncc[nH]2)c2ccc(Cl)cc2)[C@@H]1O`, the IC50 (as a rule, the concentration needed to halve the response being measured) in the test listed under Rattus norvegicus [2] was more than 30 µM. In the test listed under Rattus norvegicus [3], the EDP came out at 14 mmHg. Moreover, the TTC in the test filed under Rattus norvegicus [4] was determined as 20.3 min. Further, the IZ/AAR / AAR/LV in the test on Rattus norvegicus [5] worked out at 41%. Besides, the “LV DRxHR” value in the test filed under Rattus norvegicus [6] was found to be 55.7%. In the test listed under Rattus norvegicus [7], the LDH amounted to 10.7 U g-1. For the same compound, the inhibition entry in the test listed under Homo sapiens [8] is listed as “Significant inhibition”.
As for `COC(OC)[C@]1(C)Oc2ccc([N+](=O)[O-])cc2[C@@H](N(Cc2ncc[nH]2)c2ccc(C(F)(F)F)cc2)[C@@H]1O`, the inhibition entry in the test listed under Homo sapiens [1] is “inactive”.
Consider `COc1ccc(N(Cc2ncc[nH]2)[C@H]2c3cc(N)ccc3O[C@](C)(C(OC)OC)[C@@H]2O)cc1`, for which the inhibition result in the test filed under Homo sapiens [1] was “inactive”.
`COC(OC)[C@]1(C)Oc2ccc([N+](=O)[O-])cc2[C@@H](N(Cc2ncc[nH]2)c2ccc(OC(F)(F)F)cc2)[C@@H]1O`: the inhibition result in the test filed under Homo sapiens [1] is “inactive”.
`COC(OC)[C@]1(C)Oc2ccc([N+](=O)[O-])cc2[C@@H](N(Cc2ncc[nH]2)c2ccc(Br)cc2)[C@@H]1O`: in the test filed under Homo sapiens [1], the inhibition result was “inactive”.
On to `COC(OC)[C@]1(C)Oc2ccc([N+](=O)[O-])cc2[C@@H](N(Cc2ncc[nH]2)c2ccc(Cl)cc2)[C@@H]1O`, for which the inhibition entry in the test listed under Homo sapiens [8] was “Significant inhibition”.
Same read-out and setting: for `COC(OC)[C@@]1(C)Oc2ccc(N)cc2[C@@H](N(Cc2ncc[nH]2)c2ccc(Cl)cc2)[C@@H]1O` the value was “Significant inhibition”.
The compound `COC(OC)[C@]1(C)Oc2ccc(N)cc2[C@@H](N(Cc2ncc[nH]2)c2ccc(Cl)cc2)[C@@H]1O` had an IC50 in the test filed under Rattus norvegicus [2] of more than 30 µM. Also, the Body weight with Mus musculus [9] was determined as 25.42 g; in the test on Mus musculus [10], 27.1 g; with Mus musculus [11] it was 22.3 g; in the test on Mus musculus [12], 26.17 g. Moreover, the inhibition in vivo (in general, how much of the control response was suppressed) at 50 mg/kg worked out at 39.5% with Mus musculus [10] (A549, ip); 39.7% with Mus musculus [12] (A549, ip); 52.2% with Mus musculus [13] (A549, ip); 49.5% in the test with Mus musculus [16] (A549, ip). Besides, the Tumor volume in the test with Mus musculus [10] came to 186.8 mm**3; with Mus musculus [12], 92.2 mm**3; in the test with Mus musculus [13], 494.8 mm**3; in the test with Mus musculus [16] it was 244.3 mm**3. The EDP in the test filed under Rattus norvegicus [3] was determined as 62.3 mmHg. Further, the TTC in the test listed under Rattus norvegicus [4] came out at 23.5 min. In addition, the “LV DRxHR” value in the test filed under Rattus norvegicus [6] is given as 19.3%. Also, the “IZ/AAR / AAR/LV” value in the test with Rattus norvegicus [14] is “inactive”. For the same compound, the LDH result in the test filed under Rattus norvegicus [15] is “inactive”.
As for `COC(OC)[C@@]1(C)Oc2ccc(N)cc2[C@H](N(Cc2ncc[nH]2)c2ccc(OC(F)(F)F)cc2)[C@H]1O`, in the test filed under Homo sapiens [1], the inhibition result is “inactive”.
Turning to `COC(OC)[C@@]1(C)Oc2ccc(N)cc2[C@H](N(Cc2ncc[nH]2)c2ccc(Cl)cc2)[C@H]1O`, in the test filed under Homo sapiens [8], the inhibition result is given as “Significant inhibition”.
